Our source for the Ki values is patent US8859590B2, “Inhibitors of BACE1 and methods for treating Alzheimer's disease” (Purdue Research Foundation, priority 2008, dated 2014).

The experiment addresses BACE1 (Memapsin 2) (Homo sapiens, UniProt P56817). The experiment is described as follows: Inhibition of BACE1 (memapsin 2) catalytic activity, fluorogenic substrate FS-2. The experiment is classed as biochemical. The note with it: inhibition constants of BACE1; pH 4, 37° C. The procedure: Inhibition of BACE1 (Memapsin 2). Potency of compounds are determined by measurement of their inhibition of memapsin 2 catalytic activity toward a fluorescent substrate. […] Briefly, assays are performed at pH 4, 37° C., by pre-incubation of memapsin 2 enzyme with compound for 20 minutes. Activity measure is initiated by addition of a fluorogenic substrate FS-2 (Bachem Americas, Torrance, Calif.). Fluorescent signal increase over time is measured as a rate of hydrolysis of the peptide substrate. […]

Chain of BACE1 (Memapsin 2) (P56817 46-501): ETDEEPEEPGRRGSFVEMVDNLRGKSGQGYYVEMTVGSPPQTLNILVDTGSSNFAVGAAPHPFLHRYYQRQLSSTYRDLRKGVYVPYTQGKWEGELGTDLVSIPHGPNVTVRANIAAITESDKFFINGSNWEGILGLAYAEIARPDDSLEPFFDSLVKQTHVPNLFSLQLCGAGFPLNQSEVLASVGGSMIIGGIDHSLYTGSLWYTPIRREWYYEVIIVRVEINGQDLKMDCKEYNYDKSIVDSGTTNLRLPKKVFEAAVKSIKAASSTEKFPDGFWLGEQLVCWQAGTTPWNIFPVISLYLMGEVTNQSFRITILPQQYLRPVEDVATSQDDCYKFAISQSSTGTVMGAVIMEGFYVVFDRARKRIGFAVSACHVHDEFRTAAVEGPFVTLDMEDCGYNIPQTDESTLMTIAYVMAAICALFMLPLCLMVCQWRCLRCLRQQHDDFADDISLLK

The term Ki denotes the equilibrium dissociation constant of an inhibitor or competing ligand from its target. For the compound `C[C@@H](NC(=O)c1cc(C(=O)N[C@H](CN[C@@H]2c3ccccc3C[C@@H]2O)Cc2ccccc2)cc(N(C)S(C)(=O)=O)c1)c1ccccc1` [Example 0407], the Ki was below 1000 µM.

For the compound `C[C@@H](NC(=O)c1cc(C(=O)N[C@H](CN[C@H]2c3ccccc3C[C@H]2O)Cc2ccccc2)cc(N(C)S(C)(=O)=O)c1)c1ccccc1` [Example 0427], the Ki is below 1000 µM.

Compound `CC(C)CNC[C@@H](NC[C@H](Cc1ccccc1)NC(=O)c1cc(C(=O)N[C@H](C)c2ccccc2)cc(N(C)S(C)(=O)=O)c1)[C@@H](O)CC(C)C` [Example 1479] had a Ki below 0.1 µM.

As for `COc1cccc([C@@H](NC[C@H](Cc2ccccc2)NC(=O)c2cccc(C(=O)N(C)Cc3nc(C)cs3)c2)[C@H](O)Cc2ccccc2)c1` [Example 0439], the Ki is above 1000 µM.

`COC(=O)[C@H](NC[C@H](Cc1ccccc1)NC(=O)c1cccc(C(=O)N(C)Cc2nc(C)cs2)c1)[C@@H](C)O` [Example 0667] returned a Ki above 1000 µM.

The compound `COC(=O)[C@H](NC[C@H](Cc1ccccc1)NC(=O)c1cc(C(=O)N[C@H](C)c2ccccc2)cc(N(C)S(C)(=O)=O)c1)[C@@H](C)O` [Example 0417] registered a Ki below 1000 µM.

Consider `CC(C)CNC[C@@H](NC[C@H](Cc1ccccc1)NC(=O)c1cc(C(=O)N[C@H](C)c2ccccc2)cc(N(C)S(C)(=O)=O)c1)[C@H](C)O` [Example 1439], for which the Ki was below 0.1 µM.

With `Cc1csc(CN(C)C(=O)c2cccc(C(=O)N[C@H](CN[C@H](C(=O)NCC(C)C)[C@H](C)O)Cc3ccccc3)c2)n1` [Example 0637], the Ki was below 1000 µM.

`COc1cccc([C@H](NC[C@H](Cc2ccccc2)NC(=O)c2cccc(C(=O)N(C)Cc3nc(C)cs3)c2)[C@H](O)Cc2ccccc2)c1` [Example 0449] returned a Ki above 1000 µM.

For `Cc1csc(CN(C)C(=O)c2cccc(C(=O)N[C@H](CN[C@@H]3c4ccccc4C[C@@H]3O)Cc3ccccc3)c2)n1` [Example 0647], the inhibitory constant (Ki) is below 1000 µM.

Regarding `C[C@@H](NC(=O)c1cc(C(=O)N[C@H](CN[C@H](CO)Cc2ccccc2)Cc2ccccc2)cc(N(C)S(C)(=O)=O)c1)c1ccccc1` [Example 0397], the Ki was below 1000 µM.
